According to patent US20050009840A1 (SUGEN, INC., priority 2003, published 2005):
Counter-ions that a name gives are not always drawn.

Target: T1, Met kinase domain (GST fusion protein) (Homo sapiens, UniProt P08581)
T1 construct: Purified GST fusion protein containing the Met kinase domain
Assay: Met transphosphorylation assay (ELISA, poly(glu-tyr) substrate);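 further: Cell-free ELISA with plate-bound poly(Glu:Tyr 4:1) phosphorylated by GST-fused Met kinase domain plus ATP and Mn2+, phosphotyrosine detected by anti-phosphotyrosine antibody with HRP and ABTS read-out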
Format: biochemical
Settings: read-out: Met IC50

T1 sequence (P08581 1078-1345 limits assumed): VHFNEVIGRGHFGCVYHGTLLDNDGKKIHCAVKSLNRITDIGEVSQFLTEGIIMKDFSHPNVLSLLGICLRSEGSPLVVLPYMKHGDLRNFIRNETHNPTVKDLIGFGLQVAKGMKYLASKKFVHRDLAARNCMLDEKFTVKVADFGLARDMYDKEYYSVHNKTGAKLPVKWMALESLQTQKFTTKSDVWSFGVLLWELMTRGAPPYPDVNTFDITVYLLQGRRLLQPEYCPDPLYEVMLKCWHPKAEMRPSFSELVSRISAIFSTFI

Structure (SMILES)	IC50
CC(Oc1nc(-c2ccc(NC(=O)N3CC[C@H](N)C3)cc2)cnc1N)c1c(Cl)ccc(F)c1Cl (stereo partly drawn) [II-191, (S)-3-Amino-pyrrolidine-1-carboxylic acid (4-{5-amino-6-[1-(2,6-dichloro-3-fluoro-phenyl)-ethoxy]-pyrazin-2-yl}-phenyl)-amide]	3000 nM
CC(Oc1nc(-c2ccc(NC(=O)NC3CCN(C)CC3)cc2)cnc1N)c1c(Cl)ccc(F)c1Cl (centres unmarked) [II-192, 1-(4-{5-Amino-6-[1-(2,6-dichloro-3-fluoro-phenyl)-ethoxy]-pyrazin-2-yl}-phenyl)-3-(1-methyl-piperidin-4-yl)-urea]	52 nM
CN1CCN(C(=O)c2ccc(-c3cnc(N)c(OCc4c(F)ccc(F)c4Cl)n3)s2)CC1 [II-194, {5-[5-Amino-6-(2-chloro-3,6-difluoro-benzyloxy)-pyrazin-2-yl]-thiophen-2-yl)(4-methyl-piperazin-1-yl)-methanone]	620 nM
Nc1ncc(-c2ccc(C(=O)N3CCC(N4CCCC4)CC3)s2)nc1OCc1c(F)ccc(F)c1Cl [II-195, {5-[5-Amino-6-(2-chloro-3,6-difluoro-benzyloxy)-pyrazin-2-yl]-thiophen-2-yl}-(4-pyrrolidin-1-yl-piperidin-1-yl)-methanone]	510 nM
C[C@@H]1CN(C(=O)c2ccc(-c3cnc(N)c(OCc4c(F)ccc(F)c4Cl)n3)s2)C[C@H](C)N1 [II-196, {5-[5-Amino-6-(2-chloro-3,6-difluoro-benzyloxy)-pyrazin-2-yl]-thiophen-2-yl}-((3R,5S)-3,5-dimethyl-piperazin-1-yl)-methanone]	550 nM
Nc1ncc(-c2ccc(C(=O)N3CCC[C@@H]3CN3CCCC3)s2)nc1OCc1c(F)ccc(F)c1Cl [II-197, {5-[5-Amino-6-(2-chloro-3,6-difluoro-benzyloxy)-pyrazin-2-yl]-thiophen-2-yl}-((R)-2-pyrrolidin-1-ylmethyl-pyrrolidin-1-yl)-methanone]	800 nM
Nc1ncc(-c2ccc(C(=O)NCCN3CCOCC3)s2)nc1OCc1c(F)ccc(F)c1Cl [II-198, 5-[5-Amino-6-(2-chloro-3,6-difluoro-benzyloxy)-pyrazin-2-yl]-thiophene-2-carboxylic acid (2-morpholin-4-yl-ethyl)-amide]	700 nM
CC(Oc1nc(-c2ccc(C(=O)N3CCN(C)CC3)cn2)cnc1N)c1c(Cl)ccc(F)c1Cl (centres unmarked) [II-199, 3-[1-(2,6-dichloro-3-fluoro-phenyl)ethoxy]-5-{5-[(4-methylpiperazin-1-yl)carbonyl]-pyridin-2-yl}pyrazin-2-amine trifluoroacetate]	150 nM
CC(Oc1nc(-c2ccncc2)cnc1N)c1c(Cl)ccc(F)c1Cl (centres unmarked) [II-200, 3-[1-(2,6-Dichloro-3-fluoro-phenyl)-ethoxy]-5-pyridin-4-yl-pyrazin-2-ylamine]	45 nM
CC(Oc1nc(-c2ccc[nH]2)cnc1N)c1c(Cl)ccc(F)c1Cl (centres unmarked) [II-201, 3-[1-(2,6-Dichloro-3-fluoro-phenyl)-ethoxy]-5-(1H-pyrrol-2-yl)-pyrazin-2-ylamine]	220 nM
CC(Oc1nc(-c2ccc(C(=O)N3CCN(C)CC3)cn2)cnc1N)c1c(Cl)ccc(F)c1Cl (centres unmarked) [II-202, (6-{5-Amino-6-[1-(2,6-dichloro-3-fluoro-phenyl)-ethoxy]-pyrazin-2-yl}-pyridin-3-yl)-(4-methyl-piperazin-1-yl)-methanone]	150 nM
CC(Oc1nc(-c2cc(C(=O)N3CCN(C)CC3)ccn2)cnc1N)c1c(Cl)ccc(F)c1Cl (centres unmarked) [II-203, (2-{5-Amino-6-[1-(2,6-dichloro-3-fluoro-phenyl)-ethoxy]-pyrazin-2-yl}-pyridin-4-yl)-(4-methyl-piperazin-1-yl)-methanone]	180 nM
CC(Oc1nc(-c2cccc(C(=O)N3CCN(C)CC3)n2)cnc1N)c1c(Cl)ccc(F)c1Cl (centres unmarked) [II-204, (6-{5-Amino-6-[1-(2,6-dichloro-3-fluoro-phenyl)-ethoxy]-pyrazin-2-yl}-pyridin-2-yl)-(4-methyl-piperazin-1-yl)-methanone]	220 nM
CC(Oc1nc(-c2cncc(C(=O)N3CCN(C)CC3)c2)cnc1N)c1c(Cl)ccc(F)c1Cl (centres unmarked) [II-205, (5-{5-Amino-6-[1-(2,6-dichloro-3-fluoro-phenyl)-ethoxy]-pyrazin-2-yl}-pyridin-3-yl)-(4-methyl-piperazin-1-yl)-methanone]	100 nM
CC(Oc1nc(-c2ccnc(C(=O)N3CCN(C)CC3)c2)cnc1N)c1c(Cl)ccc(F)c1Cl (centres unmarked) [II-206, (4-{5-Amino-6-[1-(2,6-dichloro-3-fluoro-phenyl)-ethoxy]-pyrazin-2-yl}-pyridin-2-yl)-(4-methyl-piperazin-1-yl)-methanone]	100 nM
CC(Oc1nc(-c2cncc(C(=O)NCCN3CCOCC3)c2)cnc1N)c1c(Cl)ccc(F)c1Cl (centres unmarked) [II-208, 5-{5-Amino-6-[1-(2,6-dichloro-3-fluoro-phenyl)-ethoxy]-pyrazin-2-yl}-N-(2-morpholin-4-yl-ethyl)-nicotinamide]	38 nM
CC(Oc1nc(-c2cncc(C(=O)NCCCN3CCOCC3)c2)cnc1N)c1c(Cl)ccc(F)c1Cl (centres unmarked) [II-210, 5-{5-Amino-6-[1-(2,6-dichloro-3-fluoro-phenyl)-ethoxy]-pyrazin-2-yl}-N-(3-morpholin-4-yl-propyl)-nicotinamide]	22 nM
